Results: patent US20050255537A1, “Method for monitoring treatment with a parathyroid hormone” (priority 1999, published 2005)
Values joined by “and” are separate entries in the source; they are usually repeats but may differ in a detail not shown here. Equal values may be shown once.

Columns and labels:
[1] = test system: men with primary osteoporosis; experiment: Example 5 study GHAJ: bone densitometry (BMD, BMC) in men; assay type: in vivo, human; conditions: for Distal Radius (Forearm) BMD, mean change from baseline to endpoint / Distal Radius (Forearm) BMD, mean percent change from baseline to endpoint / Ultradistal Radius (Forearm) BMD, mean change from baseline to endpoint / Ultradistal Radius (Forearm) BMD, mean percent change from baseline to endpoint / Whole body BMD, mean change from baseline to endpoint: subset of patients; for increase in lumbar spine BMD compared to placebo at endpoint: median follow-up approximately 11 months
Experimental: (§1) Four hundred thirty seven men with primary osteoporosis were enrolled in the study. Approximately one-third of die patients were randomly assigned to LY333334 40 μg/day plus calcium and vitamin D, one-third of the patients were randomly assigned to LY333334 20 μg/day plus calcium and vitamin D, and one-third of the patients were randomly assigned to placebo plus calcium and vitamin D. • Number of Subjects: • PTH: Male 437, Female 0, Total 437; • LY333334 20 μg: Male: Total 151. • LY333334 40 μg: Male: Total 139. • Placebo: Male: Total 147. • Diagnosis and Inclusion Criteria: The study patients were men with primary osteoporosis, aged 30 to 85 years, inclusive. L-2 to L-4 vertebrae must have been intact without artifacts, crush fracture or other abnormalities which would have interfered with the analysis of the posterior-anterior lumbar spine bone mineral density (BMD) measurement which must have been at least 2.0 SD below that of young, healthy men. […] Patient Demographic and Other Baseline Characteristics

[2] = test system: men with primary osteoporosis; experiment: Example 5 study GHAJ: incident nonvertebral fractures; assay type: in vivo, human
Experimental: as §1
Although the incidence of nonvertebral fractures was measured, it was not a specified efficacy endpoint. The number of patients reporting at least one incident nonvertebral fracture is tabulated by fracture location in Table 10 (below). […] At individual body sites, the number of fractures was insufficient for a meaningful statistical analysis.

[3] = Post-hoc estimates of AUC from the pharmacokinetic model (systemic exposure); conditions: human, in vivo, subcutaneous
Description: In order to explore the relationship between concentration and the effect on spine BMD, a pharmacokinetic/pharmacodynamic model was developed. This relationship was best described by a sigmoid Emax model with AUC50 estimated at 170 pg·hr/mL.

[4] = test system: postmenopausal osteoporotic women; conditions: GHAC efficacy trial, disclosed in PCT/US99/18961; cited from earlier work
human subjects = experiment: Applicant's studies of daily dose of hPTH(1-34) in human subjects (bone markers, side effects); assay type: in vivo
Experimental: Therefore, treatment of osteoporosis in men or women with hPTH(1-34) preferably should use a daily dose greater than about 6 μg, more preferably at least about 15 μg. […] Therefore, any daily dose of hPTH(1-34) in the range of greater than about 6 μg to at least about 40 μg would be effective for reduction of the risk of both vertebral and nonvertebral fractures, according to the present method of using this form of parathyroid hormone.

[5] = test system: serum PICP, serum BSAP, urinary NTX, urinary free deoxypyridinoline; experiment: Example 5 study GHAJ: biochemical markers of bone formation and resorption in men; assay type: in vivo, human; conditions: for serum PICP peak concentration above baseline: Month 1
Experimental: as §1

CC[C@H](C)[C@H](NC(=O)[C@H](CCC(=O)O)NC(=O)[C@H](CO)NC(=O)[C@@H](NC(=O)[C@@H](N)CO)C(C)C)C(=O)N[C@@H](CCC(N)=O)C(=O)N[C@@H](CC(C)C)C(=O)N[C@@H](CCSC)C(=O)N[C@@H](Cc1cnc[nH]1)C(=O)N[C@@H](CC(N)=O)C(=O)N[C@@H](CC(C)C)C(=O)NCC(=O)N[C@@H](CCCCN)C(=O)N[C@@H](Cc1cnc[nH]1)C(=O)N[C@@H](CC(C)C)C(=O)N[C@@H](CC(N)=O)C(=O)N[C@@H](CO)C(=O)N[C@@H](CCSC)C(=O)N[C@@H](CCC(=O)O)C(=O)N[C@@H](CCCN=C(N)N)C(=O)N[C@H](C(=O)N[C@@H](CCC(=O)O)C(=O)N[C@@H](Cc1c[nH]c2ccccc12)C(=O)N[C@@H](CC(C)C)C(=O)N[C@@H](CCCN=C(N)N)C(=O)N[C@@H](CCCCN)C(=O)N[C@@H](CCCCN)C(=O)N[C@@H](CC(C)C)C(=O)N[C@@H](CCC(N)=O)C(=O)N[C@@H](CC(=O)O)C(=O)N[C@H](C(=O)N[C@@H](Cc1cnc[nH]1)C(=O)N[C@@H](CC(N)=O)C(=O)N[C@@H](Cc1ccccc1)C(=O)O)C(C)C)C(C)C [LY333334]
patients with a decrease in vertebral BMD at study endpoint ([1]; 20 μg): 7.1%
increase in whole body BMC compared with the placebo group ([1]; 20 μg group): approximately 0.9%
Femoral Neck BMD, mean change from baseline to endpoint ([1]; 20 μg/day): 0.01 ± 0.03 g/cm^2
Femoral Neck BMD, mean percent change from baseline to endpoint ([1]; 20 μg/day): 1.4% and 1.44% and 1.44 ± 3.61%
Intertrochanter BMD, mean change from baseline to endpoint ([1]; 20 μg/day): 0.01 ± 0.03 g/cm^2
Intertrochanter BMD, mean percent change from baseline to endpoint ([1]; 20 μg/day): 1.20 ± 3.07%
Lumbar Spine (L-1 through L-4) BMD, mean change from baseline to endpoint ([1]; 20 μg/day): 0.05 ± 0.04 g/cm^2
Lumbar Spine (L-1 through L-4) BMD, mean percent change from baseline to endpoint ([1]; 20 μg/day): 5.7% and 5.73% and 5.73 ± 4.46%
Total Hip BMD, mean change from baseline to endpoint ([1]; 20 μg/day): 0.01 ± 0.02 g/cm^2
Total Hip BMD, mean percent change from baseline to endpoint ([1]; 20 μg/day): 1.14% and 1.14 ± 2.89%
Trochanter BMD, mean change from baseline to endpoint ([1]; 20 μg/day): 0.01 ± 0.03 g/cm^2
Trochanter BMD, mean percent change from baseline to endpoint ([1]; 20 μg/day): 1.25 ± 4.15%
Ward's Triangle BMD, mean change from baseline to endpoint ([1]; 20 μg/day): 0.01 ± 0.04 g/cm^2
Ward's Triangle BMD, mean percent change from baseline to endpoint ([1]; 20 μg/day): 2.48 ± 7.20%
increase in hip (femoral neck) BMC at study endpoint ([1]; 20 μg/day): 1%
increase in lumbar spine BMC at study endpoint ([1]; 20 μg/day): 7%
Distal Radius (Forearm) BMD, mean change from baseline to endpoint ([1]; 20 μg/day): −0.00 ± 0.02 g/cm^2
Distal Radius (Forearm) BMD, mean percent change from baseline to endpoint ([1]; 20 μg/day): −0.47 ± 2.21%
Ultradistal Radius (Forearm) BMD, mean change from baseline to endpoint ([1]; 20 μg/day): −0.00 ± 0.01 g/cm^2
Ultradistal Radius (Forearm) BMD, mean percent change from baseline to endpoint ([1]; 20 μg/day): −0.40 ± 3.15%
Whole body BMD, mean change from baseline to endpoint ([1]; 20 μg/day): 0.01 ± 0.03 g/cm^2
patients with a decrease in vertebral BMD at study endpoint ([1]; 40 μg): 6.2%
decrease in distal ⅓ radius (forearm) BMD compared with the placebo group ([1]; 40 μg group): 1.0%
increase in whole body BMC compared with the placebo group ([1]; 40 μg group): 1.3%
Femoral Neck BMD, mean change from baseline to endpoint ([1]; 40 μg/day): 0.02 ± 0.04 g/cm^2
Femoral Neck BMD, mean percent change from baseline to endpoint ([1]; 40 μg/day): 2.9% and 2.85% and 2.85 ± 6.07%
Intertrochanter BMD, mean change from baseline to endpoint ([1]; 40 μg/day): 0.02 ± 0.04 g/cm^2
Intertrochanter BMD, mean percent change from baseline to endpoint ([1]; 40 μg/day): 2.32 ± 4.57%
Lumbar Spine (L-1 through L-4) BMD, mean change from baseline to endpoint ([1]; 40 μg/day): 0.07 ± 0.05 g/cm^2
Lumbar Spine (L-1 through L-4) BMD, mean percent change from baseline to endpoint ([1]; 40 μg/day): 8.8% and 8.75% and 8.75 ± 6.25%
Total Hip BMD, mean change from baseline to endpoint ([1]; 40 μg/day): 0.02 ± 0.03 g/cm^2
Total Hip BMD, mean percent change from baseline to endpoint ([1]; 40 μg/day): 2.33% and 2.33 ± 4.51%
Trochanter BMD, mean change from baseline to endpoint ([1]; 40 μg/day): 0.01 ± 0.03 g/cm^2
Trochanter BMD, mean percent change from baseline to endpoint ([1]; 40 μg/day): 1.98 ± 5.16%
Ward's Triangle BMD, mean change from baseline to endpoint ([1]; 40 μg/day): 0.03 ± 0.05 g/cm^2
Ward's Triangle BMD, mean percent change from baseline to endpoint ([1]; 40 μg/day): 6.19 ± 10.21%
increase in hip (femoral neck) BMC at study endpoint ([1]; 40 μg/day): 3%
increase in lumbar spine BMC at study endpoint ([1]; 40 μg/day): 10%
Distal Radius (Forearm) BMD, mean change from baseline to endpoint ([1]; 40 μg/day): −0.01 ± 0.02 g/cm^2
Distal Radius (Forearm) BMD, mean percent change from baseline to endpoint ([1]; 40 μg/day): −0.67 ± 2.36%
Ultradistal Radius (Forearm) BMD, mean change from baseline to endpoint ([1]; 40 μg/day): 0.00 ± 0.02 g/cm^2
Ultradistal Radius (Forearm) BMD, mean percent change from baseline to endpoint ([1]; 40 μg/day): 0.54 ± 5.98%
Whole body BMD, mean change from baseline to endpoint ([1]; 40 μg/day): 0.01 ± 0.03 g/cm^2
patients with an increase in lumbar spine BMD of 5% or more ([1]; 20-μg group): 54.6%
lumbar spine BMD increase from baseline by visit ([1]; 20-μg group, Month 3): 2.44%
lumbar spine BMD increase from baseline by visit ([1]; 20-μg group, Month 6): 4.29
difference in lumbar spine BMD between treatment group and placebo ([1]; 20-μg group, Month 12): 5.49%
lumbar spine BMD increase from baseline by visit ([1]; 20-μg group, Month 12): 6.07%
increase in lumbar spine BMD compared to placebo at endpoint ([1]; 20-μg/day): 5%
lumbar spine BMD response in hypogonadal vs idiopathic subgroups ([1]; 20 and 40 μg): did not differ significantly
patients with an increase in lumbar spine BMD of 5% or more ([1]; 40-μg group): 70.5%
lumbar spine BMD increase from baseline by visit ([1]; 40-μg group, Month 3): 3.87%
lumbar spine BMD increase from baseline by visit ([1]; 40-μg group, Month 6): 6.33%
difference in lumbar spine BMD between treatment group and placebo ([1]; 40-μg group, Month 12): 8.83%
lumbar spine BMD increase from baseline by visit ([1]; 40-μg group, Month 12): 9.41%
increase in lumbar spine BMD compared to placebo at endpoint ([1]; 40-μg/day): 8%
distal ⅓ radius (forearm) and ultradistal radius BMD compared with the placebo group ([1]; both 20-μg and 40-μg groups): unchanged
patients with at least one incident nonvertebral fracture: Ankle ([2]; 20 μg/day): 1
patients with at least one incident nonvertebral fracture: Other ([2]; 20 μg/day): 0
patients with at least one incident nonvertebral fracture: Radius ([2]; 20 μg/day): 1
patients with at least one incident nonvertebral fracture: Ribs ([2]; 20 μg/day): 1
patients with at least one incident nonvertebral fracture: Total Patients ([2]; 20 μg/day): 2
patients with at least one incident nonvertebral fracture: Ankle ([2]; 40 μg/day): 0
patients with at least one incident nonvertebral fracture: Other ([2]; 40 μg/day): 1
patients with at least one incident nonvertebral fracture: Radius ([2]; 40 μg/day): 0
patients with at least one incident nonvertebral fracture: Ribs ([2]; 40 μg/day): 0
patients with at least one incident nonvertebral fracture: Total Patients ([2]; 40 μg/day): 1
treatment difference in proportion of patients having at least one incident nonvertebral fracture ([2]; placebo, 20 and 40 μg/day, p=0.670): no significant treatment difference
AUC ([3]; 20 ug): 0.365 ng·h/mL
AUC ([3]; 40 ug): 0.576 ng·h/mL
incidence of new vertebral and non-vertebral fractures compared to placebo [4]: reduced the incidence of new vertebral fractures and non-vertebral fractures
effect on bone formation as indicated by bone markers (human subjects; 6 μg): no significant effects
undesirable side effects (human subjects; daily dose of about 20 μg vs about 40 μg): fewer undesirable side effects
lowest tested dose effective for stimulation of bone formation, as indicated by bone markers (human subjects; human subjects, daily dose): about 15 μg
urinary N-telopeptide and urinary free deoxypyridinoline ([5]; 20-μg and 40-μg doses): Slightly delayed but significant increases
serum PICP peak concentration above baseline ([5]; 20-μg group): 33.7%
increase in serum BSAP concentration from baseline ([5]; 20-μg group, Month 12): 28.8%
serum PICP compared with baseline ([5]; 20-μg group, Month 12): decreased compared with baseline
urinary NTX percent change from baseline, peak ([5]; 20-μg group, Month 12): approximately 57%
serum PICP peak concentration above baseline ([5]; 40-μg group): 78.0%
urinary NTX percent change from baseline, peak ([5]; 40-μg group, Month 6): approximately 155%
increase in serum BSAP concentration from baseline ([5]; 40-μg group, Month 12): 59.3%
serum PICP compared with baseline ([5]; 40-μg group, Month 12): slightly decreased compared with baseline
urinary NTX over baseline ([5]; 40-μg group, Month 12): approximately 118%
bone marker levels after discontinuation ([5]; closeout visit): only serum PICP levels had returned to baseline by the closeout visit
